Data reported in patent publication US20150366962A1 (priority 2014, published 2015).

Tests used:
[1] = system: rPR/8 HA; test: rPR/8 HA single immunization: serum antibody ELISA; type: in vivo, BALB/c mice; conditions: for seroconversion to rPR/8 HA (total IgG, IgG1, IgG2a): 5 μg rPR/8 HA i.m. day 0, sera days 7, 14, 21; for total serum IgG reactive to antigen, long term / IgG2a/IgG1 ratio (Th1-Th2 immune balance): 5 μg rPR/8 HA; for total serum IgG reactive to antigen, long term: bled every 3 weeks up to 18 weeks; for IgG2a/IgG1 ratio (Th1-Th2 immune balance): single immunization
[2] = system: human umbilical vein cells (HUVEC); test: Chemokine induction in HUVEC; type: cell-based
Protocol: (§1) TLR7 expression in humans is limited to plasmacytoid DC and B cells, and different from the expression in mice. Conversely, TLR4 is abundantly expressed in different cell types in humans and mice. Thus, experiments were performed to determine whether 1Z105 and 1V270 could stimulate human umbilical vein cells (HUVEC) and myeloid dendritic cells.

[3] = system: B/Florida/04/2006 (Yamagata lineage); parameters: species or system BALB/c mice; conditions: mouse, in vivo
[4] = system: A/Puerto Rico/8/1934(H1N1); parameters: species or system BALB/c mice; conditions: mouse, in vivo
[5] = system: OVA; test: OVA immunization: splenocyte IFN-γ ELISA and ELISpot; type: in vivo, C57BL/6 mice
Protocol: AddaVax and vehicle were used as controls. The sera were collected on day 35, and the serum IgG1 (A) and IgG2c (B) levels were tested. (C) Splenocytes were incubated with OVA (100 μg/ml) for 3 days, and IFN-γ levels in the culture supernatants were determined by ELISA. Data were pooled from three experiments showing similar trends. (D and E) Myd88^−/−, Tri^flps/lps, or wild-type mice (n=8/group) were i.m. immunized with ovalbumin mixed with the indicated adjuvant or vehicle in a 50-μl volume on days 0 and 14. On day 35, splenocytes were incubated with OVA MHC class I peptides (OVA257-264) (D) or class II peptides (OVA323-339) (E) overnight, and IFN-γ-producing cells were detected by ELISpot assay. The data shown are pooled from 2 or 3 independent experiments showing similar trends. *, P 0.05 compared to no adjuvant (A to C) or the WT (D and E) by one-way ANOVA with Dunnett's post hoc testing.
Vehicle (10% DMSO in saline) and AddaVax (1:1 ratio with antigen in saline) were used as controls. Sera were collected on days 0, 7, 14, 21, 28, and 35. Mice were sacrificed on day 35, and the spleens were harvested. Approximately 2.5×10^6/ml spleen cells was dispersed into round-bottom microtiter plates in triplicate in a total volume of 200 μl complete RPMI 1640 and restimulated with either 100 μg/ml OVA or medium alone. The cultures were then incubated at 37° C., 5% CO2, and the supernatants were harvested after 72 h. The levels of gamma interferon (IFN-γ) in the culture supernatants were measured by ELISA (BD Bioscience, San Jose, Calif.) according to the manufacturer's instructions. In parallel, splenocytes were stimulated with 10 μg/ml OVA class I (OVA257-264) or class II (OVA323-339) peptide on anti-IFN-γ antibody-coated enzyme-linked immunospot (ELISpot) plates for 18 h. The results are reported as numbers of IFN-spot-forming cells (SFC) per million cells as described below.

[6] = system: recombinant PR8 HA; test: T cell response to head and stalk segments of PR8 HA (IFNγ ELISpot or ELISA); type: in vivo, Balb/c mice; conditions: two immunizations two weeks apart, 6 weeks after the first
[7] = system: myeloid dendritic cells; test: Chemokine induction in human myeloid dendritic cells; type: cell-based; conditions: myeloid DC
Protocol: as §1

[8] = system: Mouse bone marrow-derived dendritic cells (mBMDCs); test: Antigen (OVA-Alexa Fluor 488) uptake in mouse BMDCs, flow cytometry; type: cell-based, C57BL/6 mice; conditions: 10 μM 1Z105 or MPLA overnight, 37° C., OVA-488 last 30 min
Protocol: (A) Upregulation of antigen uptake by 1Z105. BMDCs prepared from C57BL/6 mice were incubated with 10 μM 1Z105 or MPLA overnight. Antigen, Alexa Fluor 488-conjugated ovalbumin (OVA-488), was added to the culture for the last 30 min of incubation. The cells were washed and stained for CD11c. OVA-associated dendritic cells in the CD11c^hi population were evaluated by flow cytometry. Cells incubated at 4° C. served as a negative control. (B and C) Enhancement of expression of costimulatory molecules by 1Z105.WT (B) or Tlr4^−/− (C) BMDCs were incubated with 1Z105 (10 or 2 μM) or MPLA (0.04 μg/ml) overnight, and expression of CD40 and CD86 was assessed by flow cytometric assay. (D) 1Z105 promotes antigen cross-presentation. Wild-type BMDCs were incubated with 1Z105 (2 μM) overnight, and OVA (10 μg/ml) was added to the culture for the last 4 h of incubation. […] OT-1 T-cell proliferation was monitored by flow-cytometric assay. […] Cytokine release of IL-1β, IL-6, IL-8, IL-12p70, and TNF-α was determined by Luminex bead assay. […]
Mouse bone marrow-derived dendritic cells (mBMDCs) were prepared from wild type or Tlr4^−/− C57BL/6 mice. mBMDCs (10^5 cells per well) were plated in 96-well plates in 200 μl of complete RPMI 1640. […] The cells were stained for CD11c, and OVA uptake and expression of CD40 and CD86 in the CD11chi-gated population was determined by flow cytometry.

Row | SMILES | seroconversion to rPR/8 HA (total IgG, IgG1, IgG2a) [1] | total serum IgG reactive to antigen, long term [1] | IgG2a/IgG1 ratio (Th1-Th2 immune balance) [1] | induction of chemokines MCP-1 and IL-8 [2] | mortality compared to the no-adjuvant group [3] | mortality [4] | survival after the lethal challenge [4] [%] | weight loss [4] | weight loss compared to AddaVax [4] | dependence of increased antigen-specific T cell frequencies on MyD88 and TRIF ([5]; Myd88-/- and TrifLps2/Lps2 versus wild-type mice) | frequencies of IFN-γ-releasing T cells specific for OVA class I peptide (ELISpot) ([5]; OVA257-264, day 35 splenocytes) | frequencies of IFN-γ-releasing T cells specific for OVA class II peptide (ELISpot) ([5]; OVA323-339, day 35 splenocytes) | OVA-specific IFN-γ release by T cells restimulated ex vivo ([5]; splenocytes, OVA 100 μg/ml, 3 days, ELISA) | T cell response against the head segment (pool 1-2) of HA [6] | stalk-specific (pool 3-4) T cell responses [6] | induction of chemokines MCP-1 and IL-8 [7] | difference in serum IgG endpoint titers among rHA doses (antigen sparing) ([1]; 5, 1 or 0.2 μg rPR/8 HA, 3 weeks after immunization) | mortality compared to no-adjuvant control receiving 5 μg of rHA [4] | OVA-associated CD11chi BMDCs (antigen uptake) [8]
1 | CCCCCCCCC=CCCCCCCCC(=O)OCC(COP(=O)(O)OCCNC(=O)c1ccc(Cn2c(=O)[nH]c3c(N)nc(OCCOC)nc32)cc1)OC(=O)CCCCCCCC=CCCCCCCCC (stereo not shown) [Compound 1V270] | induced rapid seroconversion | induced a robust and sustained IgG response | induced both IgG1 and IgG2a in a more balanced Th1-Th2-type response | minimal effects | significantly reduced | provided protective efficacy | 100 | significantly reduced weight loss | restricted weight loss compared to AddaVax | partially dependent upon the MyD88 and TRIF pathways | increased frequencies | increased frequencies | promoted OVA-specific IFN-γ release | highly induced T cell response | also induced stalk-specific (pool 3-4) T cell responses | minimal effects |  |  | 
2 | Cn1c2ccccc2c2nc(SCC(=O)NC3CCCCC3)n(-c3ccccc3)c(=O)c21 [Compound 1Z105] | induced rapid seroconversion | induced a robust and sustained IgG response | produced predominately IgG1 in a Th2-type response | induced the chemokines MCP-1, and IL-8 |  | provided protective efficacy | 100 | significantly reduced weight loss |  |  |  |  |  | highly induced T cell response |  | induced the chemokines MCP-1, and IL-8 | no significant difference | significantly minimized | increased number
